Experimental findings from PubChem BioAssay (NCI) are described below.

What all share (test): NCI anticancer screen, dose series, 48 h
The test system of test [1] is SK-MEL-28 melanoma.
The test system of test [2] is MDA-MB-231 breast.
In test [3] the test system is CAKI-1 renal.
Test [4] concerns UACC-62 melanoma.
The subject of test [5] is MDA-N.
Test [6] relates to NCI-H460 lung.
For test [7], the system named is DU-145 prostate.
The subject of test [8] is SW-620 colon.
The test system of test [9] is U251 CNS.
Test [10] concerns HS 578T breast.

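Each compound was tested at five concentrations against cells in 96-well plates for 48 hours. The concentration for full growth arrest is given as TGI.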 A value given as a limit tells only on which side of the number the result lay.

Consider `CCCCn1cnc2c(c(CC#N)nn2-c2ccccc2)c1=N`, for which the TGI was over 100 µM in [1]; over 100 µM in [2]; over 100 µM in test [3]; 53.1 µM in test [4]; over 100 µM in test [5]; over 100 µM in test [6]. The TGI in test [7], in [8], in [9] and in test [10] was over 100 µM in each case.

With `C=CCNC(=S)N=Nc1c(O)[nH]c2ccc([N+](=O)[O-])cc12`, the TGI in [1], in test [2], in [3], in test [4], in test [5] and in [6] was over 100 µM throughout. Also, the TGI in test [7], in [8], in test [9] and in test [10] was over 100 µM throughout.

Consider `Cc1cc2c([N+](=O)[O-])cc3c(c2o1)C(=O)C=CC3=O`, for which the TGI in [1] is over 20.8 µM; in test [2], 40.2 µM; in [3], 2.68 µM; in test [4], 28.9 µM; in test [5] it was 28 µM; in test [6], 36.7 µM. The TGI in [7] was over 52.3 µM; in test [9] it was 33.1 µM; in test [10] it was 54.8 µM.

As for `COc1ccc(S(=O)(=O)N2C(=O)CCC2C(=O)NN)cc1` (stereo unspecified), the TGI in test [1], in test [2], in [3], in test [4], in test [5] and in test [6] was over 100 µM in each case. For the same molecule, the TGI in [7], in [8], in [9] and in test [10] was over 100 µM each time.

With `CC1CN=C(N(C(=O)Nc2ccc(F)c(Cl)c2)c2ccccc2)S1` (stereo unspecified), the TGI was 33.5 µM in test [1]; 38.9 µM in test [2]; 67 µM in test [3]; 34.7 µM in [5]; 84.1 µM in [6]; over 100 µM in [7]. The values for the TGI in test [8], in test [9] and in test [10] were 90.3 µM, 50.5 µM and over 100 µM, respectively.

Turning to `Clc1ccc(CSCCc2ccncc2)cc1Cl`, the TGI in test [1] was 50.8 µM; in [2] it was 29.1 µM; in [3], over 100 µM; in [4], 29.6 µM; in test [5], 46.5 µM; in test [6], over 100 µM. For the same molecule, the TGI in test [7] was over 100 µM; in test [8], 46.6 µM; in [9], 28.5 µM; in [10], 53.8 µM.

Regarding `O=C1CC(C(O)(C(F)(F)F)C(F)(F)Cl)CCC1C(O)(C(F)(F)F)C(F)(F)Cl` (stereo unspecified), the TGI in test [1], in test [2], in [3], in test [4], in [5] and in test [6] was over 10 µM each time. Further, the TGI in test [7], in [8], in [9] and in [10] was over 10 µM throughout.

For the molecule `COC(=O)c1cc2c(cc1CC1Cc3cc4c(cc3C1)CCC4)CCC2`, the TGI in [1] is 80.4 µM; in [2], over 100 µM; in [3], over 100 µM; in test [5], over 100 µM; in test [6] it was over 100 µM; in test [7], over 100 µM. In addition, the TGI in test [8], in test [9] and in test [10] was over 100 µM throughout.

As for `COc1ccc(-c2c3c([nH]c(=S)c2C#N)CC(C)(C)CC3=O)cc1`, the TGI in test [1], in test [2], in test [3], in [4], in [5] and in test [6] was over 100 µM each time. In addition, the TGI in test [7], in test [8], in [9] and in test [10] was over 100 µM throughout.

Turning to `Cc1cc(-c2nc3ccccc3s2)ccc1NC(=O)[C@@H](N)CCCCN`, the TGI in test [1] worked out at 31.3 µM; in test [2] it was 25.3 µM; in test [3], 20.8 µM; in test [4], 29.2 µM; in test [5], 9.75 µM; in test [6], 20.8 µM. The TGI amounted to 25.2 µM in test [7], 25.3 µM in test [8], 9.88 µM in [9] and 45.3 µM in [10].

On to `O=C(Cc1ccccc1)NN1C(=O)/C(=C\c2ccccc2)SC1=Nc1ccccc1`, for which the TGI in [1], in test [2], in test [4], in test [5], in [6] and in test [7] was over 100 µM in each case. Moreover, the TGI in [8], in test [9] and in [10] was over 100 µM throughout.

Regarding `COC(C)(C)[C@@H](O)[C@H]1C[C@H](C)[C@@]2(CC[C@]3(C)[C@@H]2CC[C@@H]2[C@@]4(C)CC[C@@H](OC(C)=O)C(C)(C)[C@@H]4C[C@@H](OC4OC(COC(C)=O)C(O)C(O)C4O)[C@]23C)O1` (stereo partly specified), the TGI in [1] is 20.4 µM; in test [2] it was 24.9 µM; in [3] it was 24.1 µM; in [4], 18.6 µM; in test [5], 17.9 µM; in test [6], 15.6 µM. The TGI turned out to be 15.7 µM in [7], 20.2 µM in test [8], 18.5 µM in [9] and 23.7 µM in test [10].

Turning to `C/C1=C\CC[C@@]2(C)O[C@@H]2C[C@@H](C2(C)CO2)CC/C(C)=C/CC1` (stereo partly specified), the TGI in test [1] was 57.6 µM; in test [2] it was 47.3 µM; in test [3], 39.9 µM; in test [4], 40.4 µM; in test [5], 69.7 µM; in test [6], 37.8 µM. Also, the TGI was 48.8 µM in test [7], over 100 µM in test [8], 29.6 µM in test [9] and 46.3 µM in [10].
